Results on one molecule are retold here after ChEMBL document CHEMBL4673280, “Discovery and SAR studies of 2-alkyl-3-phenyl-2,4,5,6,7,8-hexahydropyrazolo[3,4-d]azepines as 5-HT inhibitors leading to the identification of a clinical candidate” (Bioorg Med Chem Lett, 2021).

Structures are written as SMILES.

The assay deals with T1, Adrenergic receptor alpha-1 (Rattus norvegicus, UniProt P15823+P23944+P43140).
T1 sequence (P15823 whole entry): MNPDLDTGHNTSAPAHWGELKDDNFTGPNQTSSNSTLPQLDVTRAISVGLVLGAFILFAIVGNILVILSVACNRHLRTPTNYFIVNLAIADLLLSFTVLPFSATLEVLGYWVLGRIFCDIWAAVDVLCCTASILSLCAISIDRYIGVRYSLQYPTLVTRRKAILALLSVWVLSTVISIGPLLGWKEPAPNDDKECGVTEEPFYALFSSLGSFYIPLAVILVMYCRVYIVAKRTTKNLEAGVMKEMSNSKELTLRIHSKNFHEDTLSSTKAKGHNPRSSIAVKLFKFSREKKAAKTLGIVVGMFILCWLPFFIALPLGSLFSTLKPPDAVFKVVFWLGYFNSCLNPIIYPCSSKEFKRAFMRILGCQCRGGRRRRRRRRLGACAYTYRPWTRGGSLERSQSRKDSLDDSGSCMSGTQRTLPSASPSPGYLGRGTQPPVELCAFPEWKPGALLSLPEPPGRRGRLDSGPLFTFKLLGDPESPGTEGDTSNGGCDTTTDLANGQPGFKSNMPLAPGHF
T1 sequence (P23944 whole entry): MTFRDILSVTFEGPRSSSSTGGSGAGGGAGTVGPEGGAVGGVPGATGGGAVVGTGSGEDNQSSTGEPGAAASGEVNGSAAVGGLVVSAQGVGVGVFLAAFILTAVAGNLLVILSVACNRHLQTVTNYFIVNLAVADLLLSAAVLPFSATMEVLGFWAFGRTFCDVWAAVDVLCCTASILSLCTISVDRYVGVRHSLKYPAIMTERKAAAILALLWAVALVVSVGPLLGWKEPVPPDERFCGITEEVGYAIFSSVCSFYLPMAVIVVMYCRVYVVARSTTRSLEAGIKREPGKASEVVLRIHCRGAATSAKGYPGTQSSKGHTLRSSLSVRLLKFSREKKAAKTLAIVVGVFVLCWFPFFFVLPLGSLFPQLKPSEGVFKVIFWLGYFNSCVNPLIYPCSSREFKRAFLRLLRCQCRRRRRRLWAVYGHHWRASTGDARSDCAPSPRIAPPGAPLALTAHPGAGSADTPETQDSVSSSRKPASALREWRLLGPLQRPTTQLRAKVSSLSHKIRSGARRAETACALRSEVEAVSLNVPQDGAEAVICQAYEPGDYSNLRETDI
T1 sequence (P43140 whole entry): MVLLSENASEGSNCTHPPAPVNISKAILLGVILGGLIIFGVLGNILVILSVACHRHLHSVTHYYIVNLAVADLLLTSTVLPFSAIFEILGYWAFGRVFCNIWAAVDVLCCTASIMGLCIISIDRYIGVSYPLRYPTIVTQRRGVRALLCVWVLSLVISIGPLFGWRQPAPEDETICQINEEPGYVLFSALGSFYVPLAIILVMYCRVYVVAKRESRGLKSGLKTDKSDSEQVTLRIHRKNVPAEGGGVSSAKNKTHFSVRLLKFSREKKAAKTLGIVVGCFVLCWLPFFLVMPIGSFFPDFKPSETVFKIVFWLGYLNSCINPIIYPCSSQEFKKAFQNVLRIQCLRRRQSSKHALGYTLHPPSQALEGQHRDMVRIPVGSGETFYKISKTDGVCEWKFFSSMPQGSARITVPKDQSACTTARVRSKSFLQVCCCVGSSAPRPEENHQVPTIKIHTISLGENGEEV
Nature of the assay: Displacement of […] from alpha1 adrenergic receptor in rat cortex membrane incubated for 60 mins by competitive radioligand binding assay. The format is cell membranes.

Take `CC(C)n1nc2c(c1-c1ccc(F)cc1)CCNCC2`: the Ki is 0.17 µM.
